Literature values in US9161911B2, “Gastric retentive pharmaceutical compositions for treatment and prevention of CNS disorders” (priority 2008, dated 2015).

| SMILES | solubility in aqueous media | solubility in water |
| --- | --- | --- |
| NC(Cc1ccc(O)c(O)c1)C(=O)O (single isomer, unassigned; (-)) [Levodopa, (−)-L-alpha-amino-beta-(3,4-dihydroxybenzene) propanoic acid] | poorly soluble | slightly soluble (aqueous solubility (measured at 20° C.) in the range of 2% to 10% by weight) |
| C[C@@](Cc1ccc(O)c(O)c1)(NN)C(=O)O.O [Carbidopa, (−)-L-alpha-hydrazino-alpha-methyl-beta-(3,4-dihydroxybenzene) propanoic acid monohydrate] | poorly soluble | slightly soluble (aqueous solubility (measured at 20° C.) in the range of 2% to 10% by weight) |
